# Molecular target: T1, FXR (Homo sapiens, UniProt Q96RI1)
# T1 construct: expressed in transfected cells; host or cells: CV-1 cells
# T1 sequence (Q96RI1 1-486): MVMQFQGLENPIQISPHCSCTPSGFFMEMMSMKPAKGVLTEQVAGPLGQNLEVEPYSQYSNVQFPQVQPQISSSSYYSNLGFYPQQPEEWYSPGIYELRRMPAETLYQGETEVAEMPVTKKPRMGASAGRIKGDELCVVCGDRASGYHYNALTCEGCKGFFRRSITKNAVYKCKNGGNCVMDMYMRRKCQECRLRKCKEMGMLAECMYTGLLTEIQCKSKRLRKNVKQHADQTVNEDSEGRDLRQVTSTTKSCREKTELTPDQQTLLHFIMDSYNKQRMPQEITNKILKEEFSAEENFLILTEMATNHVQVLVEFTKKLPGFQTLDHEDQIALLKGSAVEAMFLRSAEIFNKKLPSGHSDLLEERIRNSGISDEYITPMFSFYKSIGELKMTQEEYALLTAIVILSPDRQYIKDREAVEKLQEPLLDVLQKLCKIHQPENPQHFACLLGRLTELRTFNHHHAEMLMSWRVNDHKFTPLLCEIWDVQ
# T1 sequence (P19793 1-462 partner): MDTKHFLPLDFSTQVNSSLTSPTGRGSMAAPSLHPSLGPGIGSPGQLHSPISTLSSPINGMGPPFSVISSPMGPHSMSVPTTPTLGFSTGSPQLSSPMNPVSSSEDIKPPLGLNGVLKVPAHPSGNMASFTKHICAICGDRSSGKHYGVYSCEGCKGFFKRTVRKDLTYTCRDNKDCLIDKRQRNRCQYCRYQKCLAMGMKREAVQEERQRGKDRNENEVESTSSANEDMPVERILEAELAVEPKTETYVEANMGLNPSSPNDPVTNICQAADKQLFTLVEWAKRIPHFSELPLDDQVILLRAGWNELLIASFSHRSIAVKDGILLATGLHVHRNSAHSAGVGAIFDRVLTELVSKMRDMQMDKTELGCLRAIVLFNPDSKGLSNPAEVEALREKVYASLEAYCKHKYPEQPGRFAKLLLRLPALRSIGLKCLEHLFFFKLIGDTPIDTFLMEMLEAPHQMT
# Test: In Vitro FXR Assay (TK): TK-ECRE-luc reporter in transfected CV-1 cells
# Type: cell-based
# Conditions: CV-1 cells transfected with hFXR, hRXR, 18 h incubation, luminescence
# Experimental: Example B-2: In Vitro FXR Assay (TK)
# CV-1 cells were seeded at a density of 2,000,000 cells in a T175 flask with DMEM+10% charcoal double-stripped FBS and incubated at 37° C. in 5% CO2 for 18 h (O/N).
# After 18 h of incubation, the medium in the T175 flask was changed with fresh DMEM+10% charcoal super-stripped serum. In a polypropylene tube, 2500 μL OptiMEM (Life Technologies, Cat #31985-062) was combined with expression plasmids for hFXR, hRXR, TK-ECRE-luc and pCMX-YFP. The tube was then briefly vortexed and incubated at room temperature for 5 minutes. Transfection reagent (X-tremeGENE HP from Roche, Cat #06 366 236 001) was added to the OptiMEM/plasmid mixture vortexed and incubated at room temperature for 20 minutes. Following incubation, the transfection reagent/DNA mixture complex was added to cells in the T175 flask and the cells were incubated at 37° C. in 5% CO2 for 18 h (O/N).
# Compounds were serially diluted in DMSO and added to transfected CV-1 cells. The cells were then incubated for 18 hrs. The next day cells were lysed and examined for luminescence.
row,Structure (SMILES),EC50
1,"COC(=O)/C=C/c1cccc(N(Cc2ccc(-c3ccc(N(C)C)cc3)cc2)C(=O)c2ccc(OCCO)cc2)c1 [13.22, (E)-Methyl 3-(3-(N-((4′-(dimethylamino)-[1,1′-biphenyl]-4-yl)methyl)-4-(2-hydroxyethoxy)benzamido)phenyl)acrylate]",≤ 1 µM
2,"COC(=O)/C=C/c1cccc(N(Cc2ccc(NC(=O)c3ccccc3)cc2)C(=O)C2CCCCC2)c1 [compound 100, (E)-Methyl 3-(3-(N-(4-benzamidobenzyl)cyclohexanecarboxamido)phenyl)acrylate]",1 to 10 µM
3,"COC(=O)/C=C/c1cccc(N(Cc2ccc(-c3ccc(N(C)C)cc3)cc2)C(=O)C2CCS(=O)(=O)CC2)c1 [13.8, (E)-Methyl 3-(3-(N-((4′-(dimethylamino)-[1,1′-biphenyl]-4-yl)methyl)-1,1-dioxidotetrahydro-2H-thiopyran-4-carboxamido)phenyl)acrylate]",> 10 µM
4,"COC(=O)/C=C/c1cccc(N(Cc2ccc(-c3ccc(N(C)C)cc3)cc2)C(=O)c2ccc(O)cc2)c1 [13.21, (E)-Methyl 3-(3-(N-((4′-(dimethylamino)-[1,1′-biphenyl]-4-yl)methyl)-4-hydroxybenzamido)phenyl)acrylate]",≤ 1 µM
5,"COC(=O)/C=C/c1cccc(N(Cc2ccc(-c3ccc(N(C)C)cc3)cc2)C(=O)C2CC[S+]([O-])CC2)c1 (centres unmarked) [13.19, (E)-Methyl 3-(3-(N-((4′-(dimethylamino)-[1,1′-biphenyl]-4-yl)methyl)-1-oxidotetrahydro-2H-thiopyran-4-carboxamido)phenyl)acrylate]",1 to 10 µM
6,"COC(=O)/C=C/c1cccc(N(Cc2ccc(-c3ccc(N(C)C)cc3)cc2)C(=O)c2ccc(F)c(F)c2)c1 [13.1, (E)-Methyl 3-(3-(N-((4′-(dimethylamino)-[1,1′-biphenyl]-4-yl)methyl)-3,4-difluorobenzamido)phenyl)acrylate]",1 to 10 µM
7,"COC(=O)/C=C/c1cccc(N(Cc2ccc(-c3ccc(N(C)C)cc3)cc2)C(=O)[C@@H]2CCC[C@H](O)C2)c1 (relative stereo) [13.27, cis-(E)-Methyl 3-(3-(N-((4′-(dimethylamino)-[1,1′-biphenyl]-4-yl)methyl)-3-hydroxycyclohexanecarboxamido)phenyl)acrylate]",≤ 1 µM
8,"COC(=O)/C=C/c1cccc(N(Cc2ccc(N(C)Cc3ccccc3)cc2)C(=O)C2CCCCC2)c1 [compound 103, (E)-Methyl 3-(3-(N-(4-(benzyl(methyl)amino)benzyl)cyclo-hexanecarboxamido)phenyl)acrylate]",> 10 µM
9,"COC(=O)/C=C/c1cccc(N(Cc2ccc(N(C)C(=O)c3ccccc3)cc2)C(=O)C2CCCCC2)c1 [compound 101, (E)-Methyl 3-(3-(N-(4-(N-methylbenzamido)benzyl)cyclohexane-carboxamido)phenyl)acrylate]",> 10 µM
10,"COC(=O)/C=C/c1cccc(N(Cc2ccc(-c3ccc(N(C)C)cc3)cc2)C(=O)C2COCCO2)c1 (centres unmarked) [17.2, (E)-Methyl 3-(3-(N-((4′-(dimethylamino)-[1,1′-biphenyl]-4-yl)methyl)-1,4-dioxane-2-carboxamido)phenyl)acrylate]",1 to 10 µM
11,"COC(=O)/C=C/c1cccc(N(Cc2ccc(-c3ccc(N(C)C)cc3)cc2)C(=O)C2CCC([S+](C)[O-])CC2)c1 (centres unmarked) [13.20, (E)-Methyl 3-(3-(N-((4′-(dimethylamino)-[1,1′-biphenyl]-4-yl)methyl)-4-(methylsulfinyl)cyclohexanecarboxamido)phenyl)acrylate]",1 to 10 µM
12,"COC(=O)/C=C/c1cccc(N(Cc2ccc(-c3ccc(N(C)C)cc3)cc2)C(=O)[C@H]2CC[C@H](N)CC2)c1 [compound 97, (E)-Methyl 3-(3-(trans-4-amino-N-((4′-(dimethylamino)-[1,1′-biphenyl]-4-yl)methyl)cyclohexanecarboxamido)phenyl) acrylate]",> 10 µM
13,"COC(=O)/C=C/c1cccc(N(Cc2ccc(-c3ccc(N(C)C)cc3)cc2)C(=O)C2CCSCC2)c1 [13.9, (E)-Methyl 3-(3-(N-((4′-(dimethylamino)-[1,1′-biphenyl]-4-yl)methyl)tetrahydro-2H-thiopyran-4-carboxamido)phenyl)acrylate]",≤ 1 µM

# Other lines, results leading:
row,EC50,Structure (SMILES)
1,1 to 10 µM,"COC(=O)/C=C/c1cccc(N(Cc2ccc(-c3ccc4c(c3)nnn4C)cc2)C(=O)C2CCCCC2)c1 [75.1, (E)-Methyl 3-(3-(N-(4-(1-methyl-1H-benzo[d][1,2,3]triazol-5-yl)benzyl)cyclohexanecarboxamido)phenyl) acrylate]"
2,1 to 10 µM,"COC(=O)/C=C/c1cccc(N(Cc2ccc(-c3ccc4ncoc4c3)cc2)C(=O)C2CCCCC2)c1 [75.12, (E)-Methyl 3-(3-(N-(4-(benzo[d]oxazol-6-yl)benzyl)cyclohexanecarboxamido)phenyl) acrylate]"
3,1 to 10 µM,"COC(=O)/C=C/c1cccc(N(Cc2ccc(-c3ccc(OC)c(C)c3)cc2)C(=O)C2CCN(C(C)=O)CC2)c1 [62.16, (E)-Methyl 3-(3-(1-acetyl-N-((4′-methoxy-3′-methyl-[1,1′-biphenyl]-4-yl)methyl)piperidine-4-carboxamido)phenyl)acrylate]"
4,> 10 µM,"COC(=O)/C=C/c1cccc(N(Cc2ccc(-c3ccc(S(C)(=O)=O)c(Cl)c3)cc2)C(=O)C2CCCCC2)c1 [75.10, (E)-Methyl 3-(3-(N-((3′-chloro-4′-(methylsulfonyl)-[1,1′-biphenyl]-4-yl)methyl)cyclohexanecarboxamido)phenyl) acrylate]"
5,≤ 1 µM,"COC(=O)/C=C/c1cccc(N(Cc2ccc(-c3ccc(OC)c(Cl)c3)cc2)C(=O)C2CCCCC2)c1 [62.10, (E)-Methyl 3-(3-(N-((3′-chloro-4′-methoxy-[1,1′-biphenyl]-4-yl)methyl)cyclohexanecarboxamido)phenyl) acrylate]"
6,1 to 10 µM,"COC(=O)/C=C/c1cccc(N(Cc2ccc(-c3cccc(C(=O)OC)c3)cc2)C(=O)C2CCCCC2)c1 [62.2, (E)-Methyl 4′-((N-(3-(3-methoxy-3-oxoprop-1-en-1-yl)phenyl)cyclohexanecarboxamido)methyl)-[1,1′-biphenyl]-3-carboxylate]"
7,1 to 10 µM,"COC(=O)/C=C/c1cccc(N(Cc2ccc(-c3ccc4ocnc4c3)cc2)C(=O)C2CCCCC2)c1 [75.11, (E)-Methyl 3-(3-(N-(4-(benzo[d]oxazol-5-yl)benzyl)cyclohexanecarboxamido)phenyl) acrylate]"
8,1 to 10 µM,"COC(=O)/C=C/c1cccc(N(Cc2ccc(-c3ccc(N(C)S(C)(=O)=O)cc3)cc2)C(=O)C2CCCCC2)c1 [75.6, (E)-Methyl 3-(3-(N-((4′-(N-methylmethylsulfonamido)-[1,1′-biphenyl]-4-yl)methyl)cyclohexanecarboxamido)phenyl) acrylate]"
9,> 10 µM,"COC(=O)/C=C/c1cccc(N(Cc2ccc(-c3ccc4cnoc4c3)cc2)C(=O)C2CCCCC2)c1 [75.13, (E)-Methyl 3-(3-(N-(4-(benzo[d]isoxazol-6-yl)benzyl)cyclohexanecarboxamido)phenyl) acrylate]"
10,1 to 10 µM,"COC(=O)/C=C/c1cccc(N(Cc2ccc(-c3ccc(N4CCC4)cc3)cc2)C(=O)C2CCCCC2)c1 [75.2, (E)-Methyl 3-(3-(N-((4′-(azetidin-1-yl)-[1,1′-biphenyl]-4-yl)methyl)cyclohexanecarboxamido)phenyl) acrylate]"

# Reference: patent US10626081B2, “Farnesoid X receptor agonists and uses thereof” (Metacrine, Inc., priority 2015, dated 2020)
